# Data: US9409952B2, “Peptide-compound cyclization method” (Chugai Seiyaku Kabushiki Kaisha, priority 2011, dated 2016)
# Starred links: 1 amine or outer side, 2 acyl side, 3 side chain; linkers in the order of their positions; H or OH if unused. Positions of bridges follow the written chain, without caps; N, C: chain ends. Non-standard residues stand in square brackets, D forms with d. Residues, ends and D or L forms follow the SMILES beside them. ξ: configuration not given here. *: point of attachment. Cys(O)(CH2CO) = O=C([C@H](C[S+]([O-])CC(=O)[*:3])N[*:1])[*:2]; NMeF = CN[C@@H](Cc1ccccc1)C(=O)O; NMeI = CC[C@H](C)[C@H](NC)C(=O)O; NMeL = CN[C@@H](CC(C)C)C(=O)O; NMeA = CN[C@@H](C)C(=O)O; Piperidide = C1CCN(*)CC1; {Puro} = puromycin; ξC = NC(CS)C(=O)O; Sar = CNCC(=O)O; tBu = CC(C)(C)*
# Experiments:
# [1] = Serum stability test in mouse serum; type: in vitro ADME; settings: both sexes, pH 7.4, two hours, read-out: Serum stability t1/2 (Mouse)
# Protocol: (§1) The obtained compound was metabolically reacted at a concentration of 2 uM with mouse serum (male/female mixed, Valley Biomedical, USA) (adjusted to pH 7.4 with 33.5 mM HEPES buffer) for two hours. Deproteinization treatment with acetonitrile was provided over time, the amount of the remaining unchanged compound was analyzed using LC/MS, and the metabolic half-life (t1/2) was calculated. A microsome solution prepared at 0.5 mg protein/mL from mouse hepatic microsome and small intestinal microsome (male, XENOTECH, USA) using 100 mM phosphate buffer (pH 7.4) was metabolically reacted with the compound at a concentration of 1 uM for 30 minutes in the presence or absence of NADPH. Deproteinization treatment with acetonitrile was provided over time, the amount of the remaining unchanged compound was analyzed using LC/MS, and the hepatic-intrinsic clearance (CLh, int) and the small intestinal-intrinsic clearance (CLg, int) were calculated (Table 7). Such peptides were sufficiently slowly metabolized by hydrolysis with peptidases or the like in mouse sera and microsomes, contrary to peptides composed of natural amino acids having low lipophilicity.
# [2] = Metabolic stability in human hepatic microsome; type: in vitro ADME; settings: for microsomal CLint at 1 uM: pH 7.4, Hepatic Microsome CLhint Human
# [3] = Metabolic stability in mouse small intestinal microsome; type: in vitro ADME; settings: for Intestinal Microsome CLg, int Mouse: Table 8, mouse; for oxidative metabolic rate relative to the parent thioether, small intestinal microsomes: compared with Compound P-112
# Protocol: as §1
# (§2) Metabolic stability tests were carried out in the same manner as shown in 2-1.
# [4] = Metabolic stability in mouse hepatic microsome; type: in vitro ADME; settings: for Hepatic Microsome CLh, int (Mouse) In the absence of NADPH: without NADPH; for Mouse Hepatic Microsome CLh, int: Table 9, thioether versus sulfoxide; for microsomal CLint at 1 uM: male, liver microsomes, pH 7.4
# Protocol: as §1, §2
# [5] = target: T1, soluble human IL-6R (IL-6R) (Homo sapiens, UniProt P08887); assay: IL-6/IL-6R interaction by electrochemiluminescence immunoassay (protein denaturation by desulfurization solution); type: binding; settings: 25 mM HEPES-K pH 7.6, 200 mM TCEP, 250 mM VA-044, 10 mM Cys, room temperature, 50 minutes
# T1 sequence (P08887 20-355 limits assumed): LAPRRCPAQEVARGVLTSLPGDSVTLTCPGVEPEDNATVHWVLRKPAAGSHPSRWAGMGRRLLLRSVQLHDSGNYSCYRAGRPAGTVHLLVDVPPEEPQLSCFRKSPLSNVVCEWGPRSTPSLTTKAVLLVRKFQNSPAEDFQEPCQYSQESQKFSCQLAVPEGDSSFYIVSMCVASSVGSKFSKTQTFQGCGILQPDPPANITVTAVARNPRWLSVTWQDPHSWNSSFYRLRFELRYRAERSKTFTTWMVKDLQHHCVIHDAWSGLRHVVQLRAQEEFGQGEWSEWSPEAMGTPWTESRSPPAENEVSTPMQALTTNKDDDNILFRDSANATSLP
# Protocol: Protein denaturation by a desulfurization reaction solution was evaluated (FIG. 34). As a model system, the effect of the desulfurization reaction condition on IL-6R was evaluated by detecting interaction between IL-6 and IL-6R using electrochemiluminescence immunoassay. First, 750 ng of anti-IL-6R antibody clone No. 17506 (R&D biosystems) was applied to a MSD Multi-array 384-well plate (MSD) and incubated at 4° C. overnight so that the antibody was immobilized on to the plate. The plate was washed with 80 μl of PBST three times to remove the unbound antibody, and blocking was then carried out with 2% skimmed milk for 1 hour. The blocking agent was washed away from the plate with 80 μl of PBST three times, after which 10 μl of 25 nM soluble human IL-6R (IL-6R) was added and the plate was shaken at room temperature for 50 minutes. The plate was washed with 80 μl of PBST three times, a desulfurization reaction solution (25 mM HEPES-K (pH 7.6), 200 mM TCEP, 250 mM VA-044 and 10 mM Cys) was added and the plate was shaken at room temperature for 50 minutes. The plate was washed with 80 μl of PBST three times, 10 μl of human IL-6-BAP (500 nM) was added and the plate was shaken at room temperature for 50 minutes. […] The plate was washed with 80 μl of PBST three times, and 35 μl of 2× read buffer (MSD, R92SC-3) was added, followed by measurement with SECTOR Imager 2400 (MSD) (FIG. 34).
# [6] = 2 h, pH 7.1
# [7] = 0.5 mg protein/mL, 1 uM, 30 minutes
# [8] = mouse, 0.5 mg protein/mL, 1 uM, 30 minutes, with NADPH, read-out: Hepatic Microsome CLh, int (Mouse) In the presence of NADPH
Compound,half-life at 2 uM [1],"microsomal CLint at 1 uM ([2]; human, microsomes)","Intestinal Microsome CLg, int Mouse [3]","Hepatic Microsome CLh, int (Mouse) In the absence of NADPH [4, 7]","Hepatic Microsome CLhint Mouse ([4]; Table 8, mouse)","Mouse Hepatic Microsome CLh, int [4]","microsomal CLint at 1 uM [4, 8]",Hepatic microsome CLhint (Human) In the absence of NADPH [2],Hepatic microsome CLhint (Human) In the presence of NADPH [2],further results
"CC[C@H](C)[C@H]1C(=O)NC(C(=O)N2CCCCC2)CSCC(=O)N(C)[C@@H](Cc2ccccc2)C(=O)N(C)[C@@H](C)C(=O)N(C)[C@@H](Cc2ccccc2)C(=O)N(C)[C@@H](CC(C)C)C(=O)N[C@@H]([C@@H](C)O)C(=O)N(C)CC(=O)N(C)[C@@H](CC(C)C)C(=O)N[C@@H](COC(C)(C)C)C(=O)N1C (stereo partly drawn) [Compound P-112, Ac*-MePhe-MeAla-MePhe-MeLeu-Thr-MeGly-MeLeu-Ser(tBu)-MeIle-Cys*-piperidine] ({CH2CO}-[NMeF][NMeA][NMeF][NMeL]T[Sar][NMeL]S(tBu)[NMeI][ξC]-Piperidide; thioether N-10)",> 2.5 days,118 µL/min/mg,25.9 ul/min/mg Protein,17.9 ul/min/mg Protein,30.4 ul/min/mg Protein,30.4 ul/min/mg Protein,30.4 µL/min/mg,,,
"CC[C@H](C)[C@H]1C(=O)N[C@H](C(=O)N2CCCCC2)CS(=O)(=O)CC(=O)N(C)[C@@H](C)C(=O)N(C)[C@@H](Cc2ccccc2)C(=O)N(C)[C@@H](CC(C)C)C(=O)N[C@@H]([C@@H](C)O)C(=O)N(C)CC(=O)N(C)[C@@H](CC(C)C)C(=O)N[C@@H](COC(C)(C)C)C(=O)N1C [Compound P-115, (5S,8S,11S,14S,20S,23S,26S,29R)-8-benzyl-23-(tert-butoxymethyl)-26-((S)-sec-butyl)-14-((R)-1-hydroxyethyl)-11,20-diisobutyl-4,5,7,10,16,19,25-heptamethyl-29-(piperidine-1-carbonyl)-1-thia-4,7,10,13,16,19,22,25,28-nonaazacyclotriacontane-3,6,9,12,15,18,21,24,27-nonone 1,1-dioxide]",,,21.8 ul/min/mg Protein,,42.1 ul/min/mg Protein,12.1 ul/min/mg Protein,,,,"Hepatic Microsome CLhint Human ([2]; human, microsomes, 1 uM, pH 7.4): 61.6 ul/min/mg Protein; oxidative metabolic rate relative to the parent thioether, small intestinal microsomes [3]: about 0.5 times"
"CC[C@H](C)[C@H]1C(=O)N[C@H](C(=O)N2CCCCC2)CSCC(=O)N(C)[C@@H](C)C(=O)N(C)[C@@H](Cc2ccccc2)C(=O)N(C)[C@@H](CC(C)C)C(=O)N[C@@H]([C@@H](C)O)C(=O)N(C)CC(=O)N(C)[C@@H](CC(C)C)C(=O)N[C@@H](COC(C)(C)C)C(=O)N1C [Compound P-109, Ac*-MeAla-MePhe-MeLeu-Thr-MeGly-MeLeu-Ser(tBu)-MeIle-Cys*-piperidine] ({CH2CO}-[NMeA][NMeF][NMeL]T[Sar][NMeL]S(tBu)[NMeI]C-Piperidide; thioether N-9)",> 2.5 days,158 µL/min/mg,45.8 ul/min/mg Protein,10.3 ul/min/mg Protein,57.4 ul/min/mg Protein,,57.4 µL/min/mg,11 ul/min/mg Protein,158 ul/min/mg Protein,
"CC(C)C[C@H]1C(=O)N[C@@H](COC(C)(C)C)C(=O)N[C@H](C(=O)N2CCCCC2)CSCC(=O)N(C)[C@@H](C)C(=O)N(C)[C@@H](Cc2ccccc2)C(=O)N(C)[C@@H](CC(C)C)C(=O)N[C@@H]([C@@H](C)O)C(=O)N(C)CC(=O)N1C [Compound P-102, Ac*-MeAla-MePhe-MeLeu-Thr-MeGly-MeLeu-Ser(tBu)-Cys*-piperidine] ({CH2CO}-[NMeA][NMeF][NMeL]T[Sar][NMeL]S(tBu)C-Piperidide; thioether N-8)",> 2.5 days,124 µL/min/mg,79.0 ul/min/mg Protein,0 ul/min/mg Protein,55.1 ul/min/mg Protein,,55.1 µL/min/mg,3 ul/min/mg Protein,124 ul/min/mg Protein,
OC1CSSCC1O (stereo not drawn) [oxidized DTT],,,,,,,,,,effect on interaction between IL-6R and IL-6 [5]: restores the interaction between IL-6R and IL-6
"CC[C@H](C)[C@H]1C(=O)N[C@H](C(=O)N2CCCCC2)C[S+]([O-])CC(=O)N(C)[C@@H](C)C(=O)N(C)[C@@H](Cc2ccccc2)C(=O)N(C)[C@@H](CC(C)C)C(=O)N[C@@H]([C@@H](C)O)C(=O)N(C)CC(=O)N(C)[C@@H](CC(C)C)C(=O)N[C@@H](COC(C)(C)C)C(=O)N1C (stereo partly drawn) [Compound P-114, (5S,8S,11S,14S,20S,23S,26S,29R)-8-benzyl-23-(tert-butoxymethyl)-26-((S)-sec-butyl)-14-((R)-1-hydroxyethyl)-11,20-diisobutyl-4,5,7,10,16,19,25-heptamethyl-29-(piperidine-1-carbonyl)-1-thia-4,7,10,13,16,19,22,25,28-nonaazacyclotriacontane-3,6,9,12,15,18,21,24,27-nonone 1-oxide] ([NMeA][NMeF][NMeL]T[Sar][NMeL]S(tBu)[NMeI][Cys(O)(CH2CO)]-Piperidide; lactam N-9)",,35.3 µL/min/mg,9.1 ul/min/mg Protein,,,,,,,"oxidative metabolic rate relative to the parent thioether, human hepatic microsomes [2]: about 0.3 times; oxidative metabolic rate relative to the parent thioether, small intestinal microsomes [3]: 0.2 times; oxidative metabolic rate relative to the parent thioether, mouse hepatic microsomes ([4]; compared with Compound P-112): 0.6 times; microsomal CLint at 1 uM ([4]; Table 8, mouse, read-out: Hepatic Microsome CLhint Mouse): 33.7 µL/min/mg"
"5′-AGCUUAGUCA-puromycin-3′ (3' {Puro}, sugars by position and backbone not given here) [Compound RP-1]",,,,,,,,,,amount of remaining RNA compound under desulfurization reaction condition [6]: not changed
"CC[C@H](C)[C@H]1C(=O)N[C@H](C(=O)N2CCCCC2)CSCC(=O)N(C)[C@@H](Cc2ccccc2)C(=O)N(C)[C@@H](CC(C)C)C(=O)N[C@@H]([C@@H](C)O)C(=O)N(C)CC(=O)N(C)[C@@H](CC(C)C)C(=O)N[C@@H](COC(C)(C)C)C(=O)N1C [Compound P-103, Ac*-MePhe-MeLeu-Thr-MeGly-MeLeu-Ser(tBu)-MeIle-Cys*-piperidine] ({CH2CO}-[NMeF][NMeL]T[Sar][NMeL]S(tBu)[NMeI]C-Piperidide; thioether N-8)",> 2.5 days,221 µL/min/mg,66.3 ul/min/mg Protein,11.1 ul/min/mg Protein,63.0 ul/min/mg Protein,63 ul/min/mg Protein,63 µL/min/mg,3 ul/min/mg Protein,221 ul/min/mg Protein,
"CC(C)C[C@H]1C(=O)N[C@@H](COC(C)(C)C)C(=O)N[C@H](C(=O)N2CCCCC2)CSCC(=O)N(C)[C@@H](C)C(=O)N[C@@H](Cc2ccccc2)C(=O)N(C)[C@@H](CC(C)C)C(=O)N[C@@H]([C@@H](C)O)C(=O)N(C)CC(=O)N1C [Compound P-106, Ac*-MeAla-Phe-MeLeu-Thr-MeGly-MeLeu-Ser(tBu)-Cys*-piperidine] ({CH2CO}-[NMeA]F[NMeL]T[Sar][NMeL]S(tBu)C-Piperidide; thioether N-8)",> 2.5 days,,,1.9 ul/min/mg Protein,,,151 µL/min/mg,,,
